The values below come from patent US20230049952A1, “METHODS AND COMPOUNDS FOR RESTORING MUTANT P53 FUNCTION” (PMV Pharmaceuticals, Inc., priority 2020, published 2023).

In general, Papp refers to a coefficient for how fast a substance crosses the barrier. A word on the half-life: it is the time in which the quantity being followed falls by half. The term hepatocyte CLint denotes a measure of how fast metabolising enzymes remove a compound, apart from limits set by blood flow.

Like-named read-outs stand apart in the source and are kept apart here.

Series [1] in a line: in vitro. The conditions noted are these: dog, MDCK-MDR1, pH 7.4.
Series [2] can be described thus: cell batch quality control, BCRP-MDCK monolayers. The class given is in vitro ADME. The following applies: dog; BCRP-MDCK cell batch QC; passage 23. Here is the method:
BCRP-MDCK cell monolayers were prepared at Absorption Systems. […] Each determination was performed in duplicate.

The next series addresses CYP1A2 (Homo sapiens, UniProt P05177). The following applies: 20 min, 50 μM, pH 7.4.
Series [3] is described as follows: CYP Control (negative control without CYP enzymes) in hrCYP reaction phenotyping. The conditions noted are these: S-mephenytoin 20 μM, metabolite 4′ - OH Mephenytoin.
A short description of series [4]: in vitro. The following applies: for Analyte Peak/IS Peak Ares (Mean), T60-blood / Analyte Peak/IS Peak Ares (Mean), T60-plasma: 60 min; for Analyte Peak/IS Peak Ares (Mean), T60-blood / Analyte Peak/IS Peak Ares (Mean), T60-plasma / Analyte Peak/IS Peak Ares (Mean), T0: 2 μM; for Analyte Peak/IS Peak Ares (Mean), T0: 0 min. The procedure:
All working solutions were freshly prepared similarly as described for the test article working solution.
Assay for determining Blood to plasma ratio: Pooled male CD-1 mouse, Sprague-Dawley rat, beagle dog and cynomolgus monkey plasma, and mixed gender human blood with EDTAK2 as anticoagulant were stored on wet ice and used the same day. […] After mixing thoroughly, 0.6 mL of spiked blood was transferred to a 96-well plate in triplicate. Concurrently, control compounds were spiked into each species blood in the same fashion to generate the final concentration of 2.0 μM.
The rest of the spiked blood samples were immediately placed into a humidified incubator with 5% CO2 at 37° C., with constant swiveling at 500 rpm for 60 min on a platform shaker. […] The T60-plasma samples for analysis were obtained by taking 50 μL of plasma from each well, mixed with 50 μL of blank blood and 100 μL of water, followed by addition of 600 μL stop solution. […] All the T0, T60-blood and T60-plasma samples were shaken vigorously at 800 rpm for 30 min followed by the centrifugation at 3220×g at 20° C. for 20 min. 100 μL aliquot of supernatant was diluted with 100 μL of water and mixed well for LC-MS/MS analysis.
Measurement of Hematocrit: The hematocrit (the volume percentage of erythrocytes in blood) was determined in triplicate for each species by centrifuging the blood samples with a HAEMATOKRIT 200 at 9440×g for 5 min.
Data analysis: The ratio of compound concentrations in whole blood over plasma (KB/P) and % Recovery in blood were calculated by the following equations: KB/P=[…]([T60-blood]/[T60-plasma]), where [T60-blood] is the peak area ratios of analyte/internal standard in whole blood sample at 60 min; [T60-plasma] is the peak area ratios of analyte/internal standard in plasma sample at 60 min; [T0-blood] is the peak area ratios of analyte/internal standard in whole blood sample at time zero.

The target in the next series is CYP2C9 (Homo sapiens, UniProt P11712). The conditions noted are these: 20 min, 6 μM, pH 7.4.
A short description of series [5]: metabolic stability in cryopreserved hepatocytes. The class given is in vitro ADME, rat. The conditions noted are these: Rat cryopreserved hepatocytes. Here is the method: (§1) Mixed-gender human cryopreserved hepatocytes, male Sprague-Dawley rat cryopreserved hepatocytes, male CD-1 mouse cryopreserved hepatocytes, male beagle dog cryopreserved hepatocytes, and male cynomolgus monkey cryopreserved hepatocytes were used for the study. The hepatocytes were thawed, pooled into Krebs Henseleit buffer (KHB, pH 7.4), and kept on ice prior to the experiments. […] Each experiment was performed in triplicate. The final DMSO content in the incubation mixture was ≤0.1%. […] Positive controls, testosterone (1 μM) and 7-hydroxycoumarin (7-HC) (100 μM), were performed in parallel to confirm the activity of the hepatocytes. […] Aliquots of testosterone were withdrawn (n=1) at 0, 5, 15, 30, 60, and 120 minutes. Aliquots of 7-HC were withdrawn (n=1) at 0 and 15 minutes. The reaction was immediately terminated by adding three volumes of ice-cold MeCN containing IS. The samples were then mixed and spun by centrifuge to precipitate proteins. An aliquot of the supernatant was then diluted with water. Calibration standards for the analysis of 7-HC metabolites were prepared in matched matrix. […] All samples were analyzed by LC-MS/MS. The peak area response ratio (PARR) vs. IS was compared to the PARR at time 0 to determine the percent remaining at each time point. Half-lives and clearance values were calculated using GraphPad software, fitting to a single-phase exponential decay equation.
(§2) Mixed-gender human cryopreserved hepatocytes, male Sprague-Dawley rat cryopreserved hepatocytes, male CD-1 mouse cryopreserved hepatocytes, male beagle dog cryopreserved hepatocytes, and male cynomolgus monkey cryopreserved hepatocytes were thawed and pooled into KHB buffer (pH 7.4) and kept on ice prior to the experiments. […] Each experiment was performed in triplicate. The final DMSO content in the incubation mixture was ≤0.1%.
(§3) Positive controls, testosterone (1 μM) and 7-hydroxycoumarin (7-HC) (100 μM), were performed in parallel to confirm the activity of the hepatocytes. […] Aliquots of testosterone were withdrawn (n=1) at 0, 5, 15, 30, 60, and 120 minutes. Aliquots of 7-HC were withdrawn (n=1) at 0 and 15 minutes. The reaction was immediately terminated by adding three volumes of ice-cold MeCN containing IS. The samples were then mixed and spun by centrifuge to precipitate proteins. An aliquot of the supernatant was then diluted with water. Calibration standards for the analysis of 7-HC metabolites were prepared in matched matrix. […] All samples were analyzed by LC-MS/MS. Analytical conditions are outlined below. The peak area response ratio (PARR) vs. IS was compared to the PARR at time 0 to determine the percent remaining at each time point. Half-lives and clearance values were calculated using GraphPad software, fitting to a single-phase exponential decay equation.

Series [6] is described as follows: metabolic stability in cryopreserved hepatocytes. The conditions noted are these: Dog cryopreserved hepatocytes. The class given is in vitro ADME, dog. Here is the method: Mixed-gender human cryopreserved hepatocytes, male Sprague-Dawley rat cryopreserved hepatocytes, male CD-1 mouse cryopreserved hepatocytes, male beagle dog cryopreserved hepatocytes, and male cynomolgus monkey cryopreserved hepatocytes were used for the study. The hepatocytes were thawed, pooled into Krebs Henseleit buffer (KHB, pH 7.4), and kept on ice prior to the experiments. […] Each experiment was performed in triplicate. The final DMSO content in the incubation mixture was ≤0.1%. […] Aliquots of testosterone were withdrawn (n=1) at 0, 5, 15, 30, 60, and 120 minutes. Aliquots of 7-HC were withdrawn (n=1) at 0 and 15 minutes. The reaction was immediately terminated by adding three volumes of ice-cold MeCN containing IS. The samples were then mixed and spun by centrifuge to precipitate proteins. An aliquot of the supernatant was then diluted with water. Calibration standards for the analysis of 7-HC metabolites were prepared in matched matrix. […] All samples were analyzed by LC-MS/MS. The peak area response ratio (PARR) vs. IS was compared to the PARR at time 0 to determine the percent remaining at each time point. Half-lives and clearance values were calculated using GraphPad software, fitting to a single-phase exponential decay equation.
as §2
Aliquots of testosterone were withdrawn (n=1) at 0, 5, 15, 30, 60, and 120 minutes. Aliquots of 7-HC were withdrawn (n=1) at 0 and 15 minutes. The reaction was immediately terminated by adding three volumes of ice-cold MeCN containing IS. The samples were then mixed and spun by centrifuge to precipitate proteins. An aliquot of the supernatant was then diluted with water. Calibration standards for the analysis of 7-HC metabolites were prepared in matched matrix. […] All samples were analyzed by LC-MS/MS. Analytical conditions are outlined below. The peak area response ratio (PARR) vs. IS was compared to the PARR at time 0 to determine the percent remaining at each time point. Half-lives and clearance values were calculated using GraphPad software, fitting to a single-phase exponential decay equation.

The nature of series [7]: metabolic stability in cryopreserved hepatocytes. The class given is in vitro ADME, cynomolgus monkey. The conditions noted are these: Monkey cryopreserved hepatocytes. The procedure: as §1, §2, §3
A short description of series [8]: metabolic stability in cryopreserved hepatocytes. The class given is in vitro ADME, mouse. The following applies: Mouse cryopreserved hepatocytes. Here is the method:
as §1, §2, §3

A short description of series [9]: metabolic stability in cryopreserved hepatocytes. The class given is in vitro ADME, human. The following applies: both sexes, pH 7.4; Human cryopreserved hepatocytes; positive control 1 μM. The procedure:
as §1, §2, §3

For another series, the system named is human hepatocytes. The series can be described thus: metabolic stability in cryopreserved hepatocytes. The class given is in vitro ADME. The conditions noted are these: Human cryopreserved hepatocytes; positive control, 1 μM. Here is the method: as §1, §2, §3
Setting [10] is: male, beagle, pH 7.4, positive control 1 μM.
The mark [11] stands for this setting: male, CD-1, pH 7.4, positive control 1 μM.

Chain of CYP1A2 (P05177 whole entry): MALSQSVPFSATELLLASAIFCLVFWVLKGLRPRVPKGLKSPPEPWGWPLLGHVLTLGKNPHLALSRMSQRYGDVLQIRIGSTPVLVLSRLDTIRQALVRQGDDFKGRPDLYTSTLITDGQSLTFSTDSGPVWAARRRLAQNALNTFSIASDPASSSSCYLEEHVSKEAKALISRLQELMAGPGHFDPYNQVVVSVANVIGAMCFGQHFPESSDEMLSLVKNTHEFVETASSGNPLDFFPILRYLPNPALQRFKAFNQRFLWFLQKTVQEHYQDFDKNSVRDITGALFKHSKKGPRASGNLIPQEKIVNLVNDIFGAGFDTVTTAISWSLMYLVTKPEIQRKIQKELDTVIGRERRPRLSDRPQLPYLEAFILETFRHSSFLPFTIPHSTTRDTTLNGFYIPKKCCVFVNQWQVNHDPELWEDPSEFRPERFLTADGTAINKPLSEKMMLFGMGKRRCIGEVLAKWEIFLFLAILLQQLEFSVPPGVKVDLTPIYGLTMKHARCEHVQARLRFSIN
Chain of CYP2C9 (P11712 whole entry): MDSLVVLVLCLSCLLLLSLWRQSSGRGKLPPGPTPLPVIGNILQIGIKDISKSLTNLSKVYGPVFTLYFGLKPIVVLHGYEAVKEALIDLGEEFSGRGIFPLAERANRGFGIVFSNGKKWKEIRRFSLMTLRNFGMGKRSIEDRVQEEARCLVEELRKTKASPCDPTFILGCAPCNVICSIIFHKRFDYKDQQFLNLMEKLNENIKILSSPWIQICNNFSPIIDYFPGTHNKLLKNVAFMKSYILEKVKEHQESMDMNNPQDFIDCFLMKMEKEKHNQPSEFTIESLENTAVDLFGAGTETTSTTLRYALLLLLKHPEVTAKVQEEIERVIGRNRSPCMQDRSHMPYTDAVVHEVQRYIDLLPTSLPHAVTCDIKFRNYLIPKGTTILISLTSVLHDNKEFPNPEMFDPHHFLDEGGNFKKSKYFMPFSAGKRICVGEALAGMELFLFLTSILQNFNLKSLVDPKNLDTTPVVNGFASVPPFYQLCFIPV

For the molecule `CC(C)NCC(O)COc1cccc2ccccc12` (stereo not shown) [Propranolol], in “in vitro [1]”, the Papp at 120 min stood at 20.3 ×10⁻⁶ cm/s. Besides, in series [2], the Papp turned out to be 20.1 ×10⁻⁶ cm/s.
On to `CCOc1ccc(NC(C)=O)cc1` [Phenacetin], for which, at CYP1A2, the “Formation Rate” value was 1819 pmol metabolite/min/mg Supersome protein and the “Measured Metabolite” value amounted to 3.71 µM.
On to `CC[C@@]1(c2ccccc2)NC(=O)N(C)C1=O` [S-mephenytoin], for which, in [3], the “Formation Rate” value is on record as 0 pmol metabolite/min/mg Supersome protein and the “Measured Metabolite” value came to 0 µM.
Take `O=C(O)Cc1ccccc1Nc1c(Cl)cccc1Cl` [Diclofenac]: the recovery at 60 min, 2 μM in “in vitro [4]” (both, human) was 91.2 ± 4.43%; in the series “in vitro [4]” (male, CD-1, mouse), 100 ± 6.79%; in the series “in vitro [4]” (male, Sprague-Dawley, rat), 100 ± 3.45%; in “in vitro [4]” (male, beagle, dog) it was 104 ± 1.36%; in “in vitro [4]” (male, cynomolgus monkey), 101 ± 8.23%. The “Analyte Peak/IS Peak Ares (Mean), T60-blood” value worked out at 0.311 in the series “in vitro [4]” (both, human); 0.365 in the series “in vitro [4]” (male, CD-1, mouse); 0.331 in the series “in vitro [4]” (male, Sprague-Dawley, rat); 0.313 in “in vitro [4]” (male, beagle, dog); 0.318 in “in vitro [4]” (male, cynomolgus monkey). Also, the “Analyte Peak/IS Peak Ares (Mean), T60-plasma” value in the series “in vitro [4]” (both, human) is 0.473; in “in vitro [4]” (male, CD-1, mouse), 0.501; in “in vitro [4]” (male, Sprague-Dawley, rat) it was 0.480; in the series “in vitro [4]” (male, beagle, dog), 0.484; in the series “in vitro [4]” (male, cynomolgus monkey) it was 0.513. In addition, the “Analyte Peak/IS Peak Ares (Mean), T0” value in “in vitro [4]” (male, Sprague-Dawley, rat) was 0.330; in the series “in vitro [4]” (male, beagle, dog), 0.301; in the series “in vitro [4]” (male, cynomolgus monkey) it was 0.314. In addition, the “Formation Rate” value on CYP2C9 is reported as 650 pmol metabolite/min/mg Supersome protein. The “Measured Metabolite” value on CYP2C9 amounted to 0.676 µM.
Turning to `C[C@]12CC[C@H]3[C@@H](CCC4=CC(=O)CC[C@@]43C)[C@@H]1CC[C@@H]2O` [testosterone], the CLint in [5] (positive control, 1 μM) came out at 0.405 mL/min/10^6 cells; in [6] (positive control, 1 μM), 0.0672 mL/min/10^6 cells; in [7] (positive control, 1 μM) it was 0.150 mL/min/10^6 cells; in series [8] (positive control, 1 μM), 0.181 mL/min/10^6 cells; in the series on human hepatocytes, 0.108 mL/min/10^6 cells. Also, the half-life in series [5] (positive control, 1 μM) amounted to 1.14 min; in [5] (male, Sprague-Dawley, pH 7.4, positive control 1 μM, read-out: Half-life), 1.14 min; in series [6] (setting [10]), 6.88 min; in [7] (positive control 1 μM), 3.08 min; in series [7] (positive control, 1 μM), 3.08 min; in [8] (setting [11]), 2.55 min. In series [9], the half-life was found to be 4.28 min. In addition, the hepatocyte CLint in [5] (male, Sprague-Dawley, pH 7.4, positive control 1 μM) is 405 µL/min/1e6 cells; in [6] (setting [10]) it was 67.2 µL/min/1e6 cells; in series [7] (male, pH 7.4, positive control 1 μM), 150 µL/min/1e6 cells; in series [8] (setting [11]) it was 181 µL/min/1e6 cells; in series [9] it was 108 µL/min/1e6 cells.
